The values that follow come from patent US20260001874A1 (priority 2022, published 2026).

In general, EC50 refers to the midpoint of the concentration-response curve.

For series [1], the system named is Shiga toxin Stx-1. It is filed as cell-based, E. coli. The note with it: read-out: EC50 in vitro Stx1.
A short description of series [2]: Incubation with hepatic mouse microsomes, LC-MS-MS. Conditions: 5 μM, 45 minutes, 37° C.
Series [3] has as its system myxomatosis-derived virus MYXV-T1-ANCHOR. The series can be described thus: organism not typed. The series is classed as cell-based. The note with it: RK-13, read-out: EC50 in vitro MYXV.
Series [4] is described as follows: in vitro. The note with it: rabbit.
Series [5] concerns Shiga toxin Stx-2. It is filed as cell-based, E. coli. The note with it: read-out: EC50 in vitro Stx2.
A short description of series [6]: Pharmacokinetics in Lipiodol/castor oil (formulation B) or DMSO/Lipiodol/castor oil (formulation C), oral or subcutaneous. The note with it: 33 mg/kg oral or subcutaneous, Lipiodol/castor oil 30%/70%.
A short description of series [7]: in vitro. Conditions: human.
For series [8] the following is noted: mouse, in vivo.
Series [9] has as its system VacV-ANCHOR. The series can be described thus: microbe, parasite or virus in culture. The series is classed as cell-based, cowpox virus. The note with it: Orthopoxvirus vaccinia, HeLa, read-out: EC50 in vitro VACV.
The subject of series [10] is RK13 cells. Conditions: rabbit.
The subject of series [11] is HeLa cells. Conditions: human.

As to `Cc1nc(-c2ccc(C3N(C)c4ccc(F)cc4C(=O)N3c3c(O)cccc3O)s2)cs1` (stereo not shown) [Compound 1, 3-(2,6-dihydroxyphenyl)-6-fluoro-1-methyl-2-(5-(2-methylthiazol-4-yl)thiophen-2-yl)-2,3-dihydroquinazolin-4(1H)-one], the 50% effective concentration (EC50) in series [1] came out at 16 nM. In addition, the “metabolism by hepatic microsomes in the presence of NADPH” value in series [2] is “slowed metabolism relative to the other compounds”. In addition, the EC50 in [3] is 6 nM. Also, the CC50 in [4] is 18900 nM. Besides, in [5], the half-maximal effective concentration (EC50) came to 17 nM. The “pharmacokinetic properties (plasma exposure) compared with the other molecules tested” value in [6] is “best pharmacokinetic properties of all of the molecules tested”. Moreover, the CC50 in [7] was 57700 nM. In series [8] (female, BALB/c), this compound came in with a concentration in brain of 1700 nM, a concentration in colon of 800 nM, a concentration in kidneys of 400 nM and a concentration in liver of 600 nM. For the same compound, in series [8] (female, BALB/c), the concentration in lungs stood at 500 nM, the concentration in plasma was determined as 700 nM and the “concentration in small intestine” value amounted to 2100 nM. In series [8] (female, BALB/c, sc, 33 mg/kg), the “concentration in brain (metabolite section)” value was found to be 1500 nM, the “concentration in colon (metabolite section)” value is below 200 nM, the “concentration in kidney (metabolite section)” value stood at 500 nM and the “concentration in liver (metabolite section)” value came out at 1000 nM. Also, the “concentration in lungs (metabolite section)” value in series [8] (female, BALB/c, sc, 33 mg/kg) is given as below 200 nM. Further, the EC50 in series [9] amounted to 0.78 nM.

With `Cc1nc(-c2ccc(C3N(C)c4ccc(F)cc4C(=O)N3c3ccccc3)s2)cs1` (stereo not shown) [Compound A], the EC50 in series [1] came out at 52 nM; in [3], 74.5 nM; in [5], 60 nM; in [9], 37.8 nM. Further, the figures for the CC50 in series [7] and in series [10] were above 50000 nM and 3350 nM, respectively.

On to `Cc1nc(-c2ccc(C3N(C)c4ccc(F)cc4C(=O)N3c3ccccc3O)s2)cs1` (stereo not shown) [Compound B], for which the EC50 came to 25 nM in series [1], 19 nM in series [3], 22 nM in series [5] and 3.6 nM in series [9]. Moreover, the CC50 in series [4] is 14000 nM; in series [7], 39900 nM.

With `Cc1nc(-c2ccc(C3N(C)c4ccc(F)cc4C(=O)N3c3cccc(O)c3)s2)cs1` (stereo not shown) [Compound C], the EC50 came to 62 nM in [1], 85.8 nM in series [3], 71 nM in series [5] and 32.2 nM in series [9]. Besides, the CC50 in series [4] is 3510 nM; in [7], 29200 nM.

On to `Cc1nc(-c2ccc(C3N(C)c4ccc(F)cc4C(=O)N3c3ccc(O)cc3)s2)cs1` (stereo not shown) [Compound D], for which the values for the EC50 in series [1], in series [3] and in series [9] were 483 nM, 5800 nM and 628 nM, respectively. For the same compound, the CC50 in series [11] is 20400 nM; in series [10], 12900 nM.

Regarding `Cc1nc(-c2ccc(C3N(C)c4ccc(F)cc4C(=O)N3c3cccc(O)c3O)s2)cs1` (stereo not shown) [Compound E], the EC50 in series [1] is 32 nM; in series [3], 11.5 nM; in series [5], 35 nM; in [9], 4.8 nM. In addition, the CC50 in series [4] is 1300 nM; in series [7], 8500 nM.

As to `Cc1nc(-c2ccc(C3N(C)c4ccc(F)cc4C(=O)N3c3ccc(O)cc3O)s2)cs1` (stereo not shown) [Compound F], the EC50 was 1500 nM in series [1] and 27.3 nM in series [9]. In series [7], the CC50 is 3600 nM.

Turning to `Cc1nc(-c2ccc(C3N(C)c4ccc(F)cc4C(=O)N3c3cc(O)ccc3O)s2)cs1` (stereo not shown) [Compound G], the figures for the concentration for a half-maximal effect (EC50) in series [1], in series [3] and in series [9] were 642 nM, 237 nM and 19 nM, respectively. Besides, the CC50 is 12600 nM in [4] and 36300 nM in [7].

Consider `Cc1nc(-c2ccc(C3N(C)c4ccc(F)cc4C(=O)N3c3ccc(O)c(O)c3)s2)cs1` (stereo not shown) [Compound H], for which the EC50 in series [1] was 2500 nM.

On to `Cc1nc(-c2ccc(C3N(C)c4ccc(F)cc4C(=O)N3c3cc(O)cc(O)c3)s2)cs1` (stereo not shown) [Compound I], for which the EC50 in series [1] is above 30000 nM; in [3] it was 9750 nM; in [9] it was 7300 nM. Further, the results for the CC50 in series [4] and in series [7] were 20100 nM and 25900 nM, respectively.

In the case of `Cc1nc(-c2ccc(C3N(C)c4ccc(F)cc4C(=O)N3c3ccccc3N)s2)cs1` (stereo not shown) [Compound J], the EC50 is 21 nM in series [1], 1.44 nM in series [3], 27 nM in [5] and 1 nM in series [9]. Besides, the CC50 was above 50000 nM in [7] and 7460 nM in series [10].

In the case of `CN1c2ccc(F)cc2C(=O)N(c2c(O)cccc2O)C1c1ccc(-c2csc(CO)n2)s1` (stereo not shown) [metabolite], in [8] (sc, 33 mg/kg), the “presence in kidney, liver, colon, lungs and brain after treatment with compound 1” value was “identified in vivo”.
